Series [1] concerns gram-positive and gram-negative bacteria, pathogenic fungi and protozoa. The note with it: Celmer and Solomons, J. Am. Chem. Soc. 77 (1955) 2861; cited from earlier work.
The subject of series [2] is allergen-induced degranulation of peripheral leukocytes. The series can be described thus: Inhibition of the allergen-induced degranulation reaction of peripheral leukocytes (method of Siraganian and Hook). The format is cell-based. Conditions: Homo sapiens, Leukocyte. The protocol:
For the detection of the anti-allergic action, there was measured the inhibition of the allergen-induced degranulation reaction of peripheral leukocytes; one operated according to the method of R. P. Siraganian and W. A. Hook (Manual of Clinical Immunology, 2nd edition 1980, pub. N. R. Rose and H. Friedman, Am. Soc. for Microbiology, pages 808 to 821).

Series [3] has as its system mouse. Conditions: p.o., Table I, for the toxicity cf. literature named; cited from earlier work.
In series [4] the test system is mouse. The series can be described thus: Toxicity LD50 p.o., mouse. The class given is in vivo. The note with it: thiolutin vs theophylline.
The mark [5] stands for this setting: Table I, 50% inhibition in vitro, read-out: ID50 (the source's name).

Structures are written as SMILES. pIC50: −log10 of the molar value. Counter-ions that a name gives are not always drawn. Like-named read-outs stand apart in the source and are kept apart here.

As to `CCC(=O)Nc1c2sscc-2n(C)c1=O` [aureothricin], the “antibiotic action, in words” value in series [1] is “action against gram-positive and gram-negative bacteria, pathogenic fungi and protozoa”. The pIC50 in series [2] (read-out: ID50 (the source's name)) was 6.05.

Turning to `CC(=O)NC1=C(S)C(=CS)N(C)C1=O` [Example 3, 3-Acetamido-4-mercapto-5-mercaptomethylene-1-methylpyrrolin-2-one disodium salt], the pIC50 in series [2] (setting [5]) was 5.60.

For `CN(C)c1c2sscc-2n(C)c1=O` [Example 4, N,N-Dimethylpyrrothine], the pIC50 in series [2] (setting [5]) was 5.34.

As to `Cn1c2cssc-2c(N)c1=O` [pyrrothine, 4-methyl-6-amino-1,2-dithiolo[4,3-b]pyrrol-5(4H)-one], the pIC50 in series [2] (setting [5]) is 6.05.

In the case of `CN(C)C1=C(S)C(=CS)N(C)C1=O` [Example 5, 3-Dimethylamino-4-mercapto-5-mercaptomethylene-1-methylpyrrolin-2-one disodium salt], the pIC50 in series [2] (Examples 3 to 5, no unit printed at the value, read-out: ID50 (the source's name)) was 4.30; in series [2] (setting [5]), 5.30.

For the compound `Cn1c(=O)c2[nH]cnc2n(C)c1=O` [theophylline, reference compound], the pIC50 in series [2] (setting [5]) is 2.30.

In the case of `CC(C)C(=O)Nc1c2sscc-2n(C)c1=O` [isobutyrylpyrrothine], the pIC50 in series [2] (setting [5]) was 5.77.

`CC(=O)Nc1c2sscc-2n(C)c1=O` [thiolutin]: the “antibiotic action, in words” value in series [1] was “action against gram-positive and gram-negative bacteria, pathogenic fungi and protozoa”. Also, the pIC50 in series [2] (read-out: ID50) was 6.40. Moreover, the LD50 in the series with mouse [3] was 25 mg/kg. Further, the “factor of therapeutic index against comparison compound theophylline” value with mouse [4] was “more than 10^4”.

Source of the values: patent US4760077A, “Pyrrothine derivatives and pharmaceutical use thereof” (Boehringer Mannheim GmbH, priority 1984, dated 1988).
